From patent US20020028851A1, “Guanylhydrazones and their use to treat inflammatory conditions” (priority 1994, published 2002)

Columns and labels:
BALB/c mice = assay: LPS-induced lethality (endotoxic shock); type: in vivo
Method: Experiments were undertaken to evaluate the effects of Compound No. 14 in preventing the lethal toxicity of lipopolysaccharide (LPS). LPS was administered to induce 50% lethality within 72 hr in BALB/c mice (FIG. 10). BALB/c mice (19-21 g) were given LPS (E. coli 0111:B4; Sigma) in a dose of 13.75 mg/Kg by intraperitoneal injection (0.2 ml/mouse). Stock LPS solutions (10 mg/ml) were sonicated initially for 20 min, diluted in LPS-free water (1.375 mg/ml), then sonicated again for 10 min immediately prior to injection. Compound No. 14 (1 mg/Kg, i.p.) was administered 1.5 hr before LPS. Compound No. 14 injectate was free of LPS as measured by quantitative chromogenic Limulus amebocyte lysate test (BioWhittaker, Walkersville, Md.). Data points are from two groups consisting of 10 mice per group.
Data were subjected to statistical analysis using the z test for independent proportions. The difference bewteen control and Compound No. 14 is significant (one-tailed p value<0.05; z=1.95).

RAW 264.7 cells = assay: Whole cell inhibition assay for arginine uptake; type: cell-based, murine
Lewis rats = assay: Focal cerebral infarction (middle cerebral artery severing); type: in vivo; conditions: 1 mg/Kg i.v. one hour before artery severed; 24 hours; p<0.05 vs controls
Method: Lewis rats (male, 270-300 g) were given food and water ad libi tum before and after surgery. Animals were anesthetized with ketamine (120 mg/Kg i.m.), allowed to breathe spontaneously, and body temperature maintained at 35.5-36.5° C. with a heating blanket. The ventral neck and area between the right eye and ear was shaved. A midline ventral cervical incision was used to expose the left common carotid artery (CCA) which was dissected free from surrounding tissue with preservation of the vagus nerve. A loop of 4-0 silk was then placed around the artery for future manipulation. The right common carotid artery was then exposed and permanently occluded with double 4-0 silk ligatures. […]
Twenty-four hours after MCA severing, animals were anesthetized and decapitated and the brains were quickly removed without perfusion and coronally sectioned at 1 mm intervals with a brain slicer for analysis. […] Slices were then placed in buffered 10% formalin and infarct area determined by planimetry on projected images of photographed brain slices. Infarct size for an individual animal was calculated by summing the infarct area present on each brain slice and dividing by the sum of hemisphere area for all slices for that animal (expressed as a percentage of hemisphere area for each slice). Animals were studied in groups of 10, and the data expressed as average stroke volume for the group.

[1] = system: Endothelial Derived Relaxing Factor (EDRF) activity; assay: Acetylcholine-induced hypotensive (EDRF) response; type: in vivo, rats; conditions: 50 mg/Kg single intra-arterial dose; blood pressure 30 sec after ACh
Method: Female Sprague-Dawley rats (225-250 g body weight) were anesthetized with nembutal (50 mg/Kg, i.p.), a tracheostomy tube was inserted, and the carotid artery and jugular vein cannulated by standard methods using polyethylene tubing (PE 50). Tracey, K. J., et al., 1986, SCIENCE 234, 470-474. Blood pressure was recorded continuously with a pressure transducer and recorder (Model RS-3200, Gould Inc.,). In the experiment shown here, animals received a single sterile intra-arterial dose of either N^G-methyl-L-arginine (NMA; Sigma; 10 mg/Kg), Compound No. 14 (50 mg/Kg), or vehicle (0.4 ml). Acetylcholine (ACh) diluted in LPS-free sterile water was administered via the jugular vein cannula at the doses indicated. The solutions were diluted to produce a constant injectable volume of 1 ml/Kg body weight.
The hypotensive (EDRF) response was measured as the decline in mean arterial blood pressure recorded 30 sec after administration of ACh. The number of animals studied at each dose of acetylcholine was 4-6 for each experimental condition; data are expressed as the mean +s.e.m.

TNF = TNF production by LPS/γIFN-stimulated RAW 264.7 cells; type: cell-based, murine
Method: RAW 264.7 cells were plated in standard 6-well culture plates at a density of 10^6/well and allowed to adhere for from 2 hr to overnight. The medium was then replaced with medium containing the compound to be tested. One hour later, the medium was supplemented so as to contain 25 U/ml γIFN and 0.1 μg/ml LPS and the cultures incubated a further 18 hr. The medium was then collected, and cell debris removed by centrifugation. This conditioned supernatant was then assayed for the presence of TNF using standard methodologies: L929 cell cytotoxicity bioassay, radioimmunoassay or ELISA, and Western blotting with antibodies against murine TNF.

`CC(=NNC(=N)N)c1cc(NC(=O)CCCCCCCCC(=O)Nc2cc(C(C)=NNC(=N)N)cc(C(C)=NNC(=N)N)c2)cc(C(C)=NNC(=N)N)c1.Cl.Cl.Cl.Cl` [Compound 14, N,N′-bis(3,5-diacetyl-phenyl)decanediamide tetrakis(amidinohydrazone) tetrahydrochloride] was tested, and the “Diarrhea after LPS” value (BALB/c mice; 1 mg/Kg i.p. 1.5 hr before LPS) was “not suppressed”, the “visible signs of LPS toxicity” value (BALB/c mice; 1 mg/Kg i.p. 1.5 hr before LPS) was “markedly suppressed” and the LPS-induced lethality (BALB/c mice; 1 mg/Kg i.p. 1.5 hr before LPS 13.75 mg/Kg i.p., 72 hr, p<0.05) was “reduced lethality”. The “gross signs of systemic toxicity” value (BALB/c mice; animals receiving compound alone, 1 mg/Kg i.p.) was “no gross signs of systemic toxicity”, the IC50 (RAW 264.7 cells; stimulated 8 hours previously, then exposed 10 minutes in arginine-free buffer, mean±std. err., n=3, read-out: I.C.50 for arginine uptake) was 60 ± 15 µM and the “sensitivity of arginine uptake of unstimulated cells” value (RAW 264.7 cells; unstimulated RAW 264.7) was “insensitive”. For the same molecule, the “mean infarct (stroke) size, percentage of hemisphere area” value (Lewis rats) was 1.7%±0.2%, the “acetylcholine-induced EDRF activity in vivo” value [1] was “did not suppress” and the “reduction of TNF accumulation in the culture medium” value (TNF; 10 μM, L929 cell bioassay, 18 hr) was “more than 99%”. The “TNF protein in the medium (Western blot)” value (TNF; 5 and 25 μM) was “absence of TNF protein”.
